Test results from patent US20250353891A1 (MEDIMMUNE LIMITED, priority 2022, published 2025).
Starred links: 1 amine or outer side, 2 acyl side, 3 side chain; linkers in the order of their positions; H or OH if unused. Non-standard residues stand in square brackets, D forms with d. Residues, ends and D or L forms follow the SMILES beside them. Groups on a side chain read outwards from the residue. *: point of attachment. C18 diacid = O=C(O)CCCCCCCCCCCCCCCCC(=O)*; γGlu = O=C(O)[C@H](CCC(=O)[*:2])N[*:1]; αMeF = C[C@](N)(Cc1ccccc1)C(=O)O; Aib = CC(C)(N)C(=O)O

Columns and labels:
[1] = target: human GLP-1 receptor (hGLP-1R) (Homo sapiens, UniProt P43220); test: cAMP production (HTRF) in CHO cells expressing hGLP-1R; assay type: cell-based; parameters: expressed in transfected cells; conditions: for EC50: Table 7, peptides modified at position 20, cAMP in CHO hGLP-1R cells, geometric mean, read-out: hGLP-1R EC50; for % Relative Potency Ratio: Table 7, % GLP-1R activity relative to GLP-1 / % GlucR activity relative to glucagon
Sequence of human GLP-1 receptor (hGLP-1R) (P43220 24-463): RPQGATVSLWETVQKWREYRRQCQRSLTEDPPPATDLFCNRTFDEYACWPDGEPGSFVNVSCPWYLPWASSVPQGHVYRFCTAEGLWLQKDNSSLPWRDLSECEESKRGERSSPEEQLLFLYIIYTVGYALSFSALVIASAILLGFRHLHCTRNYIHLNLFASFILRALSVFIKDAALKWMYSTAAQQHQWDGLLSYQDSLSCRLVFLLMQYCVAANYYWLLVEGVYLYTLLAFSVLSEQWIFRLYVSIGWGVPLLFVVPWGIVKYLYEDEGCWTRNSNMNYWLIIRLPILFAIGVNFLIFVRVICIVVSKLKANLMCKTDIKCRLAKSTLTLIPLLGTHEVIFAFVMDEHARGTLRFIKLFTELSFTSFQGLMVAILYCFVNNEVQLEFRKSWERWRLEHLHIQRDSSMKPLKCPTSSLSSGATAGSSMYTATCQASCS
In short: (§1)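 Read-out: HTRF cAMP (anti-cAMP cryptate donor, cAMP-d2 acceptor in conjugate/lysis buffer), converted to % Delta F and fitted by 4-parameter logistic for EC50. Cell densities were 1×10^5 cells/mL (hGLP-1R) or 2×10^5 cells/mL (hGCGR). Stimulation lasted 30 min at room temperature.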

[2] = target: human glucagon receptor (hGCGR) (Homo sapiens, UniProt P47871); test: cAMP production (HTRF) in CHO cells expressing hGCGR; assay type: cell-based; parameters: expressed in transfected cells; conditions: Table 7, peptides modified at position 20; cAMP in CHO hGCGR cells; geometric mean; read-out: hGluc-R EC50
Sequence of human glucagon receptor (hGCGR) (P47871 26-477): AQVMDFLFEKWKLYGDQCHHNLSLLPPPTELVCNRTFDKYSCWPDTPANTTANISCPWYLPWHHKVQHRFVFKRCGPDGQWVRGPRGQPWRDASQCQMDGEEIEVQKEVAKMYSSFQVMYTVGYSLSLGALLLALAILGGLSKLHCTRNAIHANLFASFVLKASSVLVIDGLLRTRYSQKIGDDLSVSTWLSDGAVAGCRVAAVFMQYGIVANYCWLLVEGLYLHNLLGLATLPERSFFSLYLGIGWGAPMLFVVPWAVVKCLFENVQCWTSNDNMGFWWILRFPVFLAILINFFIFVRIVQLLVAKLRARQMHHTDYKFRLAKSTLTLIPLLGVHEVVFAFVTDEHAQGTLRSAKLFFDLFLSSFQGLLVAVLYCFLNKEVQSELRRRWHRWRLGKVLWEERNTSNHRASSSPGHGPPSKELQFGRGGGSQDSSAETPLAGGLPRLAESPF
In short: as §1

| Compound | EC50 [1] [nM] | % Relative Potency Ratio [1] | EC50 [2] [nM] |
| --- | --- | --- | --- |
| CC(C)C[C@H](NC(=O)[C@H](Cc1c[nH]c2ccccc12)NC(=O)[C@H](CCCNC(=N)N)NC(=O)[C@@H](NC(=O)[C@H](Cc1ccccc1)NC(=O)[C@H](CC(=O)O)NC(=O)[C@H](CCCCNC(=O)COCCOCCNC(=O)COCCOCCNC(=O)CC[C@H](NC(=O)CCCCCCCCCCCCCCCCC(=O)O)C(=O)O)NC(=O)[C@H](C)NC(=O)[C@H](CCCNC(=N)N)NC(=O)[C@H](CCCNC(=N)N)NC(=O)[C@H](CO)NC(=O)[C@H](CC(=O)O)NC(=O)[C@H](CC(C)C)NC(=O)[C@](C)(Cc1ccccc1)NC(=O)[C@H](CCCCN)NC(=O)[C@H](CO)NC(=O)[C@@H](NC(=O)[C@H](CC(=O)O)NC(=O)[C@H](CO)NC(=O)[C@@H](NC(=O)[C@H](Cc1ccccc1)NC(=O)[C@@H](NC(=O)CNC(=O)[C@H](CCC(N)=O)NC(=O)C(C)(C)NC(=O)[C@@H](N)Cc1c[nH]cn1)[C@@H](C)O)[C@@H](C)O)C(C)C)C(C)C)C(=O)N[C@@H](CC(C)C)C(=O)N[C@@H](CCC(=O)O)C(=O)NC(C)(C)C(=O)NCC(=O)O [Peptide 331] | 0.0626 | 2.1 | 0.0666 |
| CC(C)C[C@H](NC(=O)[C@H](Cc1c[nH]c2ccccc12)NC(=O)[C@H](CCC(N)=O)NC(=O)[C@@H](NC(=O)[C@H](Cc1ccccc1)NC(=O)[C@H](CC(=O)O)NC(=O)[C@H](CCCCNC(=O)COCCOCCNC(=O)COCCOCCNC(=O)CC[C@H](NC(=O)CCCCCCCCCCCCCCCCC(=O)O)C(=O)O)NC(=O)[C@H](C)NC(=O)[C@H](CCCNC(=N)N)NC(=O)[C@H](CCCNC(=N)N)NC(=O)[C@H](CO)NC(=O)[C@H](CC(=O)O)NC(=O)[C@H](CC(C)C)NC(=O)[C@](C)(Cc1ccccc1)NC(=O)[C@H](CCCCN)NC(=O)[C@H](CO)NC(=O)[C@@H](NC(=O)[C@H](CC(=O)O)NC(=O)[C@H](CO)NC(=O)[C@@H](NC(=O)[C@H](Cc1ccccc1)NC(=O)[C@@H](NC(=O)CNC(=O)[C@H](CCC(N)=O)NC(=O)C(C)(C)NC(=O)[C@@H](N)Cc1c[nH]cn1)[C@@H](C)O)[C@@H](C)O)C(C)C)C(C)C)C(=O)N[C@@H](CC(C)C)C(=O)N[C@@H](CCC(=O)O)C(=O)NC(C)(C)C(=O)NCC(=O)O [Peptide 332] | 0.0775 | 1.5 | 0.0589 |
| CC(C)C[C@H](NC(=O)[C@H](Cc1c[nH]c2ccccc12)NC(=O)[C@H](CCC(N)=O)NC(=O)[C@@H](NC(=O)[C@H](Cc1ccccc1)NC(=O)[C@H](CC(=O)O)NC(=O)[C@H](CCCCNC(=O)COCCOCCNC(=O)COCCOCCNC(=O)CC[C@H](NC(=O)CCCCCCCCCCCCCCCCC(=O)O)C(=O)O)NC(=O)[C@H](C)NC(=O)[C@H](CCCNC(=N)N)NC(=O)[C@H](CCCNC(=N)N)NC(=O)[C@H](CO)NC(=O)[C@H](CC(=O)O)NC(=O)[C@H](CC(C)C)NC(=O)[C@](C)(Cc1ccccc1)NC(=O)[C@H](CCCCN)NC(=O)[C@H](CO)NC(=O)[C@@H](NC(=O)[C@H](CC(=O)O)NC(=O)[C@H](CO)NC(=O)[C@@H](NC(=O)[C@H](Cc1ccccc1)NC(=O)[C@@H](NC(=O)CNC(=O)[C@H](CCC(N)=O)NC(=O)C(C)(C)NC(=O)[C@@H](N)Cc1c[nH]cn1)[C@@H](C)O)[C@@H](C)O)C(C)C)C(C)C)C(=O)N[C@@H](CC(C)C)C(=O)NC(C)(C)C(=O)N[C@H](C(=O)N[C@@H](CCC(=O)O)C(=O)O)[C@@H](C)O [Peptide 333] | 0.135 | 3.1 | 0.213 |
| CC(C)C[C@H](NC(=O)[C@H](Cc1c[nH]c2ccccc12)NC(=O)[C@H](CCC(N)=O)NC(=O)[C@@H](NC(=O)[C@H](Cc1ccccc1)NC(=O)[C@H](CC(=O)O)NC(=O)[C@H](CCCCNC(=O)CC[C@H](NC(=O)CCCCCCCCCCCCCCCCC(=O)O)C(=O)O)NC(=O)[C@H](C)NC(=O)[C@H](CCCNC(=N)N)NC(=O)[C@H](CCCNC(=N)N)NC(=O)[C@H](CO)NC(=O)[C@H](CC(=O)O)NC(=O)[C@H](CC(C)C)NC(=O)[C@](C)(Cc1ccccc1)NC(=O)[C@H](CCCCN)NC(=O)[C@H](CO)NC(=O)[C@H](Cc1ccc(O)cc1)NC(=O)[C@H](CC(=O)O)NC(=O)[C@H](CO)NC(=O)[C@@H](NC(=O)[C@H](Cc1ccccc1)NC(=O)[C@@H](NC(=O)CNC(=O)[C@H](CCC(N)=O)NC(=O)C(C)(C)NC(=O)[C@@H](N)Cc1c[nH]cn1)[C@@H](C)O)[C@@H](C)O)C(C)C)C(=O)N[C@@H](C)C(=O)NC(C)(C)C(=O)N[C@@H](CCC(=O)O)C(=O)O [Peptide 334] | 0.25 | 3.7 | 0.462 |
| CC(C)C[C@H](NC(=O)[C@H](Cc1c[nH]c2ccccc12)NC(=O)[C@H](CCC(N)=O)NC(=O)[C@@H](NC(=O)[C@H](Cc1ccccc1)NC(=O)[C@H](CC(=O)O)NC(=O)[C@H](CCCCNC(=O)CC[C@H](NC(=O)CCCCCCCCCCCCCCCCC(=O)O)C(=O)O)NC(=O)[C@H](C)NC(=O)[C@H](CCCNC(=N)N)NC(=O)[C@H](CCCNC(=N)N)NC(=O)[C@H](CO)NC(=O)[C@H](CC(=O)O)NC(=O)[C@H](CC(C)C)NC(=O)[C@](C)(Cc1ccccc1)NC(=O)[C@H](CCCCN)NC(=O)[C@H](CO)NC(=O)[C@H](Cc1ccc(O)cc1)NC(=O)[C@H](CC(=O)O)NC(=O)[C@H](CO)NC(=O)[C@@H](NC(=O)[C@H](Cc1ccccc1)NC(=O)[C@@H](NC(=O)CNC(=O)[C@H](CCC(N)=O)NC(=O)C(C)(C)NC(=O)[C@@H](N)Cc1c[nH]cn1)[C@@H](C)O)[C@@H](C)O)C(C)C)C(=O)N[C@@H](CC(C)C)C(=O)N[C@@H](CCC(=O)O)C(=O)NC(C)(C)C(=O)NCC(=O)O [Peptide 335] | 1.06 | 0.6 | 0.312 |
| CC[C@H](C)[C@H](NC(=O)[C@H](CC(C)C)NC(=O)[C@H](Cc1c[nH]c2ccccc12)NC(=O)[C@H](CCC(N)=O)NC(=O)[C@@H](NC(=O)[C@H](Cc1ccccc1)NC(=O)[C@H](CC(=O)O)NC(=O)[C@H](CCCCNC(=O)CC[C@H](NC(=O)CCCCCCCCCCCCCCCCC(=O)O)C(=O)O)NC(=O)[C@H](C)NC(=O)[C@H](CCCNC(=N)N)NC(=O)[C@H](CCCNC(=N)N)NC(=O)[C@H](CO)NC(=O)[C@H](CC(=O)O)NC(=O)[C@H](CC(C)C)NC(=O)[C@](C)(Cc1ccccc1)NC(=O)[C@H](CCCCN)NC(=O)[C@H](CO)NC(=O)[C@H](Cc1ccc(O)cc1)NC(=O)[C@H](CC(=O)O)NC(=O)[C@H](CO)NC(=O)[C@@H](NC(=O)[C@H](Cc1ccccc1)NC(=O)[C@@H](NC(=O)CNC(=O)[C@H](CCC(N)=O)NC(=O)C(C)(C)NC(=O)[C@@H](N)Cc1c[nH]cn1)[C@@H](C)O)[C@@H](C)O)C(C)C)C(=O)N[C@@H](CO)C(=O)N[C@@H](CCC(=O)O)C(=O)O [Peptide 336] (H-H[Aib]QGTFTSDYSK[αMeF]LDSRRAK([γGlu-C18 diacid])DFVQWLISE-OH; N-terminus assumed) | 0.632 | 1.0 | 0.305 |
| CC(C)C[C@H](NC(=O)[C@H](Cc1c[nH]c2ccccc12)NC(=O)[C@H](CCC(N)=O)NC(=O)[C@@H](NC(=O)[C@H](Cc1ccccc1)NC(=O)[C@H](CC(=O)O)NC(=O)[C@H](CCCCNC(=O)CC[C@H](NC(=O)CCCCCCCCCCCCCCCCC(=O)O)C(=O)O)NC(=O)[C@H](C)NC(=O)[C@H](CCCNC(=N)N)NC(=O)[C@H](CCCNC(=N)N)NC(=O)[C@H](CO)NC(=O)[C@H](CC(=O)O)NC(=O)[C@H](CC(C)C)NC(=O)[C@](C)(Cc1ccccc1)NC(=O)[C@H](CCCCN)NC(=O)[C@H](CO)NC(=O)[C@H](Cc1ccc(O)cc1)NC(=O)[C@H](CC(=O)O)NC(=O)[C@H](CO)NC(=O)[C@@H](NC(=O)[C@H](Cc1ccccc1)NC(=O)[C@@H](NC(=O)CNC(=O)[C@H](CCC(N)=O)NC(=O)C(C)(C)NC(=O)[C@@H](N)Cc1c[nH]cn1)[C@@H](C)O)[C@@H](C)O)C(C)C)C(=O)N[C@@H](CC(C)C)C(=O)NC(C)(C)C(=O)N[C@H](C(=O)O)[C@@H](C)O [Peptide 337] | 0.4 | 0.4 | 0.0896 |
| CC(C)C[C@H](NC(=O)[C@H](Cc1c[nH]c2ccccc12)NC(=O)[C@H](CCC(N)=O)NC(=O)[C@@H](NC(=O)[C@H](Cc1ccccc1)NC(=O)[C@H](CC(=O)O)NC(=O)[C@H](CCCCNC(=O)CC[C@H](NC(=O)CCCCCCCCCCCCCCCCC(=O)O)C(=O)O)NC(=O)[C@H](C)NC(=O)[C@H](CCCNC(=N)N)NC(=O)[C@H](CCCNC(=N)N)NC(=O)C(C)(C)NC(=O)[C@H](CC(=O)O)NC(=O)[C@H](CC(C)C)NC(=O)[C@](C)(Cc1ccccc1)NC(=O)[C@H](CCCCN)NC(=O)[C@H](CO)NC(=O)[C@H](Cc1ccc(O)cc1)NC(=O)[C@H](CC(=O)O)NC(=O)[C@H](CO)NC(=O)[C@@H](NC(=O)[C@H](Cc1ccccc1)NC(=O)[C@@H](NC(=O)CNC(=O)[C@H](CCC(N)=O)NC(=O)C(C)(C)NC(=O)[C@@H](N)Cc1c[nH]cn1)[C@@H](C)O)[C@@H](C)O)C(C)C)C(=O)N[C@@H](CC(C)C)C(=O)NC(C)(C)C(=O)N[C@H](C(=O)O)[C@@H](C)O [Peptide 338] | 0.308 | 0.2 | 0.0257 |
